According to the supplement of paper PMC10307832:

Tests used:
Test in all cases: relative viability (nuclei count vs DMSO), 5 days (fraction); higher = more cells survive
XMD14-99 + Dasatinib = compound: CN1CCN(CC1)C2=CC(=C(C=C2)NC3=NC(=C(S3)C(=O)C4=C(C=CC=C4Cl)Cl)N)OC [XMD14-99] + Cc1nc(Nc2ncc(C(=O)Nc3c(C)cccc3Cl)s2)cc(N2CCN(CCO)CC2)n1 [Dasatinib] (partner 0.075 µM)
In short: (§1)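 Nuclei were stained with Hoechst during a one-step fixation (final 0.05% Triton X-100, 1% formaldehyde, 1 ug/ml Hoechst) carried out 5 days after dosing, then counted on 4× images. The cells, lung cancer lines in 1536-well plates, had been dosed by pin tool the day after seeding with one drug alone or a fixed anchor-drug dose plus five library-drug doses (not always all listed) in √10 steps. Relative viability is the nuclei count in treated wells divided by that in vehicle wells, and each value is the median of duplicate plates.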

AZD1208 + OSI-027 = compound: N[C@@H]1CCCN(c2c(/C=C3\SC(=O)NC3=O)cccc2-c2ccccc2)C1 [AZD1208] + COc1cccc2cc(-c3nc([C@H]4CC[C@H](C(=O)O)CC4)n4ncnc(N)c34)[nH]c12 [OSI-027] (partner 0.5 µM)
In short: as §1

AZD1208 + Alpelisib = compound: N[C@@H]1CCCN(c2c(/C=C3\SC(=O)NC3=O)cccc2-c2ccccc2)C1 [AZD1208] + Cc1nc(NC(=O)N2CCC[C@H]2C(N)=O)sc1-c1ccnc(C(C)(C)C(F)(F)F)c1 [Alpelisib] (partner 2 µM)
In short: as §1

AZD1208 + Vorinostat = compound: N[C@@H]1CCCN(c2c(/C=C3\SC(=O)NC3=O)cccc2-c2ccccc2)C1 [AZD1208] + O=C(CCCCCCC(=O)Nc1ccccc1)NO [Vorinostat] (partner 1 µM)
In short: as §1

Cell Line	relative viability (XMD14-99 + Dasatinib; first compound 0.08 µM)	relative viability (XMD14-99 + Dasatinib; first compound 0.8 µM)	relative viability (XMD14-99 + Dasatinib; first compound 2.53 µM)	relative viability (XMD14-99 + Dasatinib; first compound 8 µM)	relative viability (AZD1208 + OSI-027; first compound 0.08 µM)	relative viability (AZD1208 + OSI-027; first compound 0.253 µM)	relative viability (AZD1208 + OSI-027; first compound 0.8 µM)	relative viability (AZD1208 + OSI-027; first compound 2.53 µM)	relative viability (AZD1208 + OSI-027; first compound 8 µM)	relative viability (AZD1208 + Alpelisib; first compound 0.08 µM)	relative viability (AZD1208 + Alpelisib; first compound 0.253 µM)	relative viability (AZD1208 + Alpelisib; first compound 2.53 µM)	relative viability (AZD1208 + Alpelisib; first compound 8 µM)	relative viability (AZD1208 + Vorinostat; first compound 0.08 µM)	relative viability (AZD1208 + Vorinostat; first compound 0.253 µM)	relative viability (AZD1208 + Vorinostat; first compound 0.8 µM)	relative viability (AZD1208 + Vorinostat; first compound 2.53 µM)	relative viability (AZD1208 + Vorinostat; first compound 8 µM)	relative viability (AZD1208 + Alpelisib; first compound 0.8 µM)
LCLC-97TM1	0.837	0.766	0.73	0.559	0.456	0.476	0.344	0.354	0.29	0.267	0.212	0.169	0.199	0.64	0.99	0.623	0.442	0.54	
NCI-H838	0.303	0.324	0.245	0.216	0.378	0.453	0.38	0.326	0.301	0.962	1.13	0.959	0.882	0.679	0.661	0.639	0.682	0.689	0.887
NCI-H1355	0.777	0.702	0.655	0.476	0.389	0.31	0.315	0.285	0.273	0.826	0.832	0.771	0.64	0.638	0.672	0.558	0.603	0.544	0.704
HOP-62	0.635	0.658	0.656	0.496	0.863	0.965	0.726	0.642	0.632	1.04	0.919	0.764	0.896	0.657	0.856	0.6	0.455	0.572	0.82
NCI-H2087	0.739	0.714	0.55	0.305	0.518	0.508	0.427	0.513	0.445	1.04	1.03	1.13	0.963	0.789	0.795	0.752	0.73	0.406	1.09
